{"source": "patent US11104660B2", "about": "“PDE4D inhibitors” (TETRA DISCOVERY PARTNERS, INC., priority 2019, dated 2021)", "system": "PDE4D", "assay": "Occupancy of Compound B by PET with Compound A (Lassen plot)", "type": "in vivo, cynomolgus non-human primates (Macaca fascicularis)", "details": "Compound B 3 mg/kg infusion", "description": "Two male non-naïve cynomolgus non-human primates (Macaca fascicularis) (“Subject 1” and “Subject 2”) were utilized in this study (7.0 and 5.5 kg). Subjects had previously undergone surgery for placement of arterial access ports for blood collection from the iliac artery. Each subject underwent a brain MR in a Philips 1.5T Intera scanner using a 3D T1 FFE sequence for subsequent registration with PET and application of a cynomolgus brain region of interest atlas for determination of regional time-activity curves. PET scans were conducted in each subject under baseline condition (i.e., Compound A, only) and 15 minutes after a 10 minute infusion of Compound B at 3 mg/kg (i.e. blocking condition). Compound B is a known PDE4D ligand, alternatively referred to as BPN14770.\nVolume of distribution (VT) (mL/cm^3) of Compound A was estimated with the 2-tissue compartment (2TC) model and Logan graphical analysis (LGA, t*=30), for baseline and blocking scans, using 90 min of data. VT at baseline and blocking in ROIs were used to compute occupancy of Compound B via the occupancy (Lassen) plot. Time stability of VT estimated from 2TC and LGA models were assessed for both animals from 90 min or 120 minutes of data for baseline and blocking scans.", "data": [{"molecule": "NC(=O)Cc1ccc(Nc2cc(C(F)(F)F)nc(-c3cccc(Cl)c3)n2)cc1", "note": "[Compound B]", "values": [{"measurement": "Occupancy (%)", "setting": "Subject 1, 2TC", "value": 84, "unit": "%"}, {"measurement": "Occupancy (%)", "setting": "Subject 1, LGA", "value": 88, "unit": "%"}, {"measurement": "Occupancy (%)", "setting": "Subject 2, 2TC", "value": 82, "unit": "%"}, {"measurement": "Occupancy (%)", "setting": "Subject 2, LGA", "value": 73, "unit": "%"}]}]}
